Test results reported in patent publication US20110086853A1, “Therapeutic Compounds” (priority 2009, published 2011).

Molecular target: T1, Human CB1 receptor (Homo sapiens, UniProt P21554)
T1 construct: purchased Receptor Biology
Experiment: hCB1 GTPγS binding
Format: biochemical
Details: maximal stimulated binding determined with 10 μM Win 55,212-2
Description: hCB1 and hCB2 GTPγS Binding
Human CB1 receptor from Receptor Biology (hCB1) or human CB2 receptor membranes (BioSignal) are thawed at 37° C., passed 3 times through a 25-gauge blunt-end needle and diluted in the GTPγS binding buffer (50 mM Hepes, 20 mM NaOH, 100 mM NaCl, 1 mM EDTA, 5 mM MgCl2, pH 7.4, 0.1% BSA). The EC50 and Emax of the compounds of the invention are evaluated from 10-point dose-response curves done in 300 μl with the appropriate amount of membrane protein and 100000-130000 dpm of GTPg^35S per well (0.11-0.14 nM). The basal and maximal stimulated binding is determined in absence and presence of 1 μM (hCB2) or 10 μM (hCB1) Win 55, 212-2 respectively. The membranes are pre-incubated for 5 minutes with 56.25 μM (hCB2) or 112.5 μM (hCB1) GDP prior to distribution in plates (15 μM (hCB2) or 30 μM (hCB1) GDP final). The plates are vortexed and incubated for 60 minutes at room temperature, filtered on Unifilters GF/B (presoaked in water) with the Tomtec or Packard harvester using 3 ml of wash buffer (50 mM Tris, 5 mM MgCl2, 50 mM NaCl, pH 7.0). The filters are dried for 1 hour at 55° C. The radioactivity (cpm) is counted in a TopCount (Packard) after adding 65 μl/well of MS-20 scintillation liquid. Antagonist reversal studies are done in the same way except that (a) an agonist dose-response curve is done in the presence of a constant concentration of antagonist, or (b) an antagonist dose-response curve is done in the presence of a constant concentration of agonist.

T1 sequence (P21554 whole entry): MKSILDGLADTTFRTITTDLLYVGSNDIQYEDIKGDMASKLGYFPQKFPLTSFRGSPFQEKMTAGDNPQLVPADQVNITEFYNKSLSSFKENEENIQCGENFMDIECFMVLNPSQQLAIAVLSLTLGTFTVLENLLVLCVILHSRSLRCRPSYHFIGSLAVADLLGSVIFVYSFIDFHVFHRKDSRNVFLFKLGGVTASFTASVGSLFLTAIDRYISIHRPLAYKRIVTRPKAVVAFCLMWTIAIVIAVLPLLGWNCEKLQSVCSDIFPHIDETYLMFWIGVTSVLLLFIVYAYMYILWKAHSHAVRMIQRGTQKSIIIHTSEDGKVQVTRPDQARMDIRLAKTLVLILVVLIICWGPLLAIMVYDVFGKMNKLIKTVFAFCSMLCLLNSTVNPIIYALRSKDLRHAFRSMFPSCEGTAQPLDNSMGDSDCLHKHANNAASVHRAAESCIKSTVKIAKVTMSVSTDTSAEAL

| SMILES | Emax [%] |
| --- | --- |
| CCNC(=O)c1ccn(S(=O)(=O)c2ccc3c(c2)nc(C(C)(C)C)n3CC2CCOCC2)c1 [1-{[2-tert-butyl-1-(tetrahydro-2H-pyran-4-ylmethyl)-1H-benzimidazol-5-yl]sulfonyl}-N-ethyl-1H-pyrrole-3-carboxamide] | 138 |
| CC(C)(C)c1nc2cc(S(=O)(=O)n3cc(C(=O)NC4CC4)cn3)ccc2n1CC1CCC(F)(F)CC1 [1-({2-tert-Butyl-1-[(4,4-difluorocyclohexyl)methyl]-1H-benzimidazol-5-yl}sulfonyl)-N-cyclopropyl-1H-pyrazole-4-carboxamide] | 122 |
| CCNC(=O)c1cnn(S(=O)(=O)c2ccc3c(c2)nc(C(C)(C)C)n3CC2CCOCC2)c1 [Example 27, 1-{[2-tert-Butyl-1-(tetrahydro-2H-pyran-4-ylmethyl)-1H-benzimidazol-5-yl]sulfonyl}-N-ethyl-1H-pyrazole-4-carboxamide] | 127 |
| CCNC(=O)[C@@H]1CN(S(=O)(=O)c2ccc3c(c2)nc(C(C)(C)C)n3CC2CCC(F)(F)CC2)CCO1 [(2S)-4-((2-tert-butyl-1-[(4,4-difluorocyclohexyl)methyl]-1H-benzimidazol-5-yl}sulfonyl)-N-ethylmorpholine-2-carboxamide] | 156 |
| CC(C)(C)c1nc2cc(S(=O)(=O)N3CCOC(C(=O)NC4CC4)C3)ccc2n1CC1CCC(F)(F)CC1 (centres unmarked) [4-({2-tert-Butyl-1-[(4,4-difluorocyclohexyl)methyl]-1H-benzimidazol-5-yl}sulfonyl)-N-cyclopropylmorpholine-2-carboxamide] | 120 |
| CCCNC(=O)[C@H]1CCCN(S(=O)(=O)c2ccc3c(c2)nc(C(C)(C)C)n3CC2CCC(F)(F)CC2)C1 [(3S)-1-({2-tert-Butyl-1-[(4,4-difluorocyclohexyl)methyl]-1H-benzimidazol-5-yl}sulfonyl)-N-propylpiperidine-3-carboxamide] | 134 |
| CC(C)(C)c1nc2cc(S(=O)(=O)n3ccc(C(=O)NC4CC4)c3)ccc2n1CC1CCOCC1 [1-{[2-tert-Butyl-1-(tetrahydro-2H-pyran-4-ylmethyl)-1H-benzimidazol-5-yl]sulfonyl}-N-cyclopropyl-1H-pyrrole-3-carboxamide] | 142 |
| CC(F)(F)c1nc2cc(S(=O)(=O)n3ccc(C(=O)NC4CC4)c3)ccc2n1CC1CCOCC1 [N-Cyclopropyl-1-{[2-(1,1-difluoroethyl)-1-(tetrahydro-2H-pyran-4-ylmethyl)-1H-benzimidazol-5-yl]sulfonyl}-1H-pyrrole-3-carboxamide] | 119 |
| CC(C)NC(=O)c1cnn(S(=O)(=O)c2ccc3c(c2)nc(C(C)(C)C)n3CC2CCC(F)(F)CC2)c1 [1-({2-tert-Butyl-1-[(4,4-difluorocyclohexyl)methyl]-1H-benzimidazol-5-yl}sulfonyl)-N-isopropyl-1H-pyrazole-4-carboxamide] | 125 |
| CNC(=O)c1cnn(S(=O)(=O)c2ccc3c(c2)nc(C(C)(C)C)n3CC2CCC(F)(F)CC2)c1 [1-({2-tert-Butyl-1-[(4,4-difluorocyclohexyl)methyl]-1H-benzimidazol-5-yl}sulfonyl)-N-methyl-1H-pyrazole-4-carboxamide] | 118 |
| CC(C)(C)c1nc2cc(S(=O)(=O)N3CCC[C@H](C(=O)NC4CC4)C3)ccc2n1CC1CCC(F)(F)CC1 [(3S)-1-({2-tert-Butyl-1-[(4,4-difluorocyclohexyl)methyl]-1H-benzimidazol-5-yl}sulfonyl)-N-cyclopropylpiperidine-3-carboxamide] | 136 |
